Here are results for two compounds from paper PMC7467771, “Lipophilic Arginine Esters: The Gateway to Preservatives without Side Effects” (Molecular Pharmaceutics, 2020).

Data set [1] relates to Enterococcus faecalis ATCC 19433. Nature of the data set: MIC testing by the microdilution method. Format: cell-based. To be noted: Enterococcus faecalis, ATCC19433, read-out: minimum inhibitory concentration. The protocol: (§1) Following bacterial strains were used for antimicrobial susceptibility testing: Escherichia coli ATCC 25922, Staphylococcus aureus ATCC 29213, Bacillus subtilis ATCC 6633, and Enterococcus faecalis ATCC 19433, which were obtained from the American Type Culture Collection (ATCC, Virginia, USA).
(§2) The MIC is the lowest concentration of a substance that leads to a clearly visible growth inhibition after a defined incubation period. To evaluate the MIC of Arg-DT, Arg-OL, BAC, and cetrimide, a microdilution test was performed according to the guidelines of the Clinical and Laboratory Standards Institute.[19] First of all, similarly, as for the disk diffusion test, microorganisms were dissolved in saline and set to a 0.5 McFarland standard turbidity. This corresponds to a bacterial concentration of 1.5 × 10^8 colony-forming units per milliliter (CFU mL^–1); 50 μL of the bacterial suspension was added to 10 mL of Mueller Hinton Bouillon (MHB, Becton Dickinson, New Jersey, USA). The stock solutions were prepared as follows: the test compounds Arg-OL, Arg-DT, BAC, and cetrimide were dissolved in water with 10% (v/v) DMSO at a concentration of 10 mg mL^–1. The obtained solutions were used to prepare serial dilutions. The tested concentration for each substance ranged from 5000 to 5 μg mL^–1. Each test sample was added to a flat-bottomed tissue plate well in the volume of 75 μL. The first well of the tissue plate containing 75 μL of water with 10% (v/v) DMSO instead of any test sample was used as a positive control. Finally, 75 μL of the bacterial suspension was added to each well, and the plates were incubated at 37 °C overnight.
(§3) Before measuring the optical density (OD), plates were shaken for 15 min at 250 rpm. The OD was measured using the Bio-Rad 680 microplate reader (Hercules, California, USA) at a wavelength of 490 nm. Inhibition of bacterial growth was defined as a reduction of growth for at least 5 log units. Experiments were performed three times under analogous conditions for each bacterial strain and each tested sample.
For orientation: Dilution methods test growth across graded concentrations, often in twofold steps.

Data set [2] concerns Staphylococcus aureus ATCC 29213. Nature of the data set: MIC testing by the microdilution method. It is filed as cell-based. To be noted: Staphylococcus aureus, ATCC29213, read-out: minimum inhibitory concentration. Here is the method: as §1, §2, §3
Data set [3] deals with Bacillus subtilis ATCC 6633. Nature of the data set: MIC testing by the microdilution method. The settings on record: Bacillus subtilis, ATCC6633, read-out: minimum inhibitory concentration. Format: cell-based. Here is the method: as §1, §2, §3
Data set [4] concerns Escherichia coli ATCC 25922. Briefly: MIC testing by the microdilution method. Format: cell-based. To be noted: Escherichia coli, ATCC25922, read-out: minimum inhibitory concentration. The protocol: as §1, §2, §3
For the next data set, the system named is red blood cells (RBC). Briefly: hemolysis study. It is filed as cell-based. To be noted: human RBC, 1 h, 37 °C, PBS pH 7.4. Here is the method: The hemolysis test was performed with red blood cells (RBC) to evaluate the potential toxic effect of Arg-surfactants on human cells.[18] Human RBC concentrate was kindly donated by the Tirol Kliniken GmbH, Innsbruck, Austria, and stored at 4 °C until use. RBC concentrate (0.556 mL) was freshly diluted by adding sterile Dulbecco’s PBS (pH 7.4) (1.944 mL) before the test to obtain an equivalent amount of whole blood (EWB). Then EWB was 50 times diluted in sterile Dulbecco’s PBS (pH 7.4). The diluted blood on visual inspection was turbid and settled down upon leaving undisturbed, indicating no cell lysis. Arg-surfactant stock solutions were prepared in the concentration range of 10–5000 μg mL^–1 in PBS. For comparison, BAC and cetrimide solutions were prepared in the same concentration range in PBS. For the assay, 10 μL of each test sample was mixed with 190 μL of diluted blood, resulting in the testing final concentrations of 0.5–250 μg mL^–1. For the positive control, 10 μL of 20% v/v Triton X-100 and, for the negative control, 10 μL of sterile Dulbecco’s PBS were mixed with 190 μL of diluted blood. All samples and controls were incubated for 1 h at 37 °C with shaking. After centrifugation at 10 000 rpm for 60 s, aliquots of 100 μL were withdrawn from the supernatants and transferred to a 96-well plate. Absorbance was measured at a wavelength of 420 nm. The extent of hemolysis as a percentage was determined by using the following equation: [drawing 6]

The nature of data set [5]: critical micelle concentration (CMC), pyrene fluorescent method. It is filed as physicochemical. The settings on record: aqueous solution, 37 °C, 3 h. The protocol: The critical micelle concentration (CMC) is an important solution property of any amphiphilic compound and can be defined as the minimum concentration at which micelles start to form. The CMC of Arg-esters was determined using a pyrene fluorescent method as described in a previous publication.[15] Methanol solution of pyrene (2 μM) was added to several vials (250 μL per vial) and evaporated overnight to leave thin dried films of pyrene. Aqueous solutions of Arg-esters were prepared in a wide concentration range and were added to individual vials containing pyrene films in a 500 μL volume. The samples were left stirring at 400 rpm, 37 °C. After 3 h, the fluorescence of each sample was measured at the excitation wavelength of 334 nm, and emissions were taken at 372 (I1) nm and 393 nm (I3). A graph was plotted between the fluorescent intensity ratio (I3/I1) and the log concentration of Arg-ester. Then, from the resulting curve for each Arg-ester, the “CMC value” was calculated. For the calculation of the CMC, the segmental linear regression method was used, and CMC values were obtained as the concentration corresponding to the intercept of the extrapolations of the first segment and the rapidly varying second segment of the I3/I1 versus log concentration plot. […]

As to `CCCCCCCCCCCCC(CCCCCCCCCC)COC(=O)[C@@H](N)CCCNC(=N)N.O=C(O)C(F)(F)F` (stereo partly drawn) [Arg-DT, 2-Decyltetradecyl Argininate Trifluoroacetate], the MIC in data set [1] turned out to be 10 µg/mL; in data set [2] it was 10 µg/mL; in data set [3], 5 µg/mL; in data set [4], 39 µg/mL. Besides, the “HC50 (concentration causing lysis of 50% red blood cells)” value in the data set with red blood cells (RBC) is recorded as 125 μg mL^–1. In addition, the “critical micelle concentration (CMC)” value in data set [5] is recorded as 0.013 mM.

For the compound `CCCCCCCCC=CCCCCCCCCOC(=O)[C@@H](N)CCCNC(=N)N.O=C(O)C(F)(F)F` [Arg-OL, Octadec-9-en-1-yl Argininate Trifluoroacetate], the MIC worked out at 5 µg/mL in data set [1], 10 µg/mL in data set [2], 5 µg/mL in data set [3] and 20 µg/mL in data set [4]. Also, the “HC50 (concentration causing lysis of 50% red blood cells)” value in the data set with red blood cells (RBC) amounted to 60 μg mL^–1. The “critical micelle concentration (CMC)” value in data set [5] stood at 0.52 mM.
